# Assay results from US20120077957A1, “Lactam-Bridged Melanocortin Receptor-Specific Peptides” (PALATIN TECHNOLOGIES, INC., priority 2009, published 2012).
# Where two headings read alike, the source gives them in different places. Bridge positions count the residues as written; N and C are the ends. Square brackets hold non-standard residues; d marks the D form. Peptide text beside a SMILES is read from it. Orn = NCCC[C@H](N)C(=O)O
# Target: T1, human MC4-R (Homo sapiens, UniProt P32245)
# T1 construct: expressed in transfected cells; host or cells: HEK293 T-REx (tetracycline-regulated, Invitrogen); cell line from Palatin Technologies with license from the University of Michigan
# T1 sequence (P32245 whole entry): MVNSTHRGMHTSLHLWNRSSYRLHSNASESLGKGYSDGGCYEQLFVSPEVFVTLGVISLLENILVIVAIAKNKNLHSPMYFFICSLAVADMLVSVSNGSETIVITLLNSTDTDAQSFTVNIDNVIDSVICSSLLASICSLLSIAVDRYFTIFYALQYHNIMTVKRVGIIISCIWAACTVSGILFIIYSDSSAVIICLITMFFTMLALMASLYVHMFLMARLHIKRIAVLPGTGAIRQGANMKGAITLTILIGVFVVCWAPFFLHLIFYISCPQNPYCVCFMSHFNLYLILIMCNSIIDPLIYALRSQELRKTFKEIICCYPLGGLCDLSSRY
# Assay: cAMP functional assay in HEK-293 T-REx cells expressing human MC4-R, induced with doxycycline 0.1 ng/mL (low density)
# Assay type: cell-based
# Conditions: for Emax: HEK293-T-REx, maximal cAMP stimulation, NDP-α-MSH = 100%, read-out: Emax
# Source text: A HEK293 cell line transfected with human MC4-R (from Palatin Technologies, US, with license from the University of Michigan) was used. The human MC4-R was introduced to HEK293 by using the T-REx™ System, Invitrogen. The T-REx™ System employs a tetracycline-regulated mammalian expression system that uses regulatory elements from the E. coli Tn10-encoded tetracycline (Tet) resistance operon. By use of the T-REx™ System, expression of the gene of interest, the human MC4-R gene, is repressed in the absence of tetracycline or doxycycline and induced in the presence of tetracycline or doxycycline (see T-REx™ System Manual, published by Invitrogen).
# Cells were then counted and volume was adjusted to 5×10^4 cells per 200 μL.
# The cells were then dispensed into 96-well plates (BD 353916) in 198 μL (about 5×10^4) cells/well and incubated for 10 minutes at 37° C. The compound to be tested was diluted with DMSO to a final concentration of 1 mM. Serial dilution was prepared in polypropylene removable 12-well library tube strips (VWR cat #83009-682). 120 μL of the 1 mM compound stock was pipetted in the second column on the plate.
# 2 μL of the standard, [Nle^4, D-Phe^7]alpha-Melanocyte Stimulating Hormone (NDP-α-MSH), or compound was added to the 96-well plate using the Janus robotic system. All assay samples were run in duplicate (i.e. each sample was in two low dox and two high dox plates, respectively). The plates were gently shaken and incubated for 15 minutes at 37° C. The reaction was stopped by adding 15 μL of lysis buffer per well and the plates were shakened for 30 minutes at room temperature.
# Agonist stimulation of the MC4-R activates adenylate cyclase, which is an enzyme that catalyses the formation 3′,5′-cyclic adenosine monophosphate (cAMP) from adenosine triphosphate (ATP). […] Fluoresence ratios were then calculated as described in the CisBio HTRF kit, with GraphPad Prism software used to plot the change in fluorescence percent values versus cAMP concentration using the variable slope dose response curve and, based on calculated cAMP concentrations, to determine EC50 and Emax values. […]
# [1] = doxycycline 0.1 ng/mL, averages of all comparable assays
# [2] = human MC4-R cAMP assay, doxycycline 0.1 ng/mL, averages of all comparable assays, read-out: Ec50
SMILES,Emax [1] [%],EC50 [2] [nM],EC50 [nM]
"CC(=O)N[C@@H](CCCNC(=N)N)C(=O)N[C@H]1CCC(=O)NCCC[C@@H](C(N)=O)NC(=O)[C@H](Cc2c[nH]c3ccccc23)NC(=O)[C@H](CCCNC(=N)N)NC(=O)[C@@H](Cc2ccccc2)NC(=O)[C@H](CCCCN)NC1=O [No. 16, Ac-Arg-cyclo(Glu-Lys-D-Phe-Arg-Trp-Orn)-NH2] (Ac-REK[dF]RW[Orn]-NH2; lactam 2-7)",104,2,
CC(=O)N[C@@H](CCCNC(=N)N)C(=O)N[C@H]1CC(=O)NCCCC[C@@H](C(N)=O)NC(=O)[C@H](Cc2c[nH]c3ccccc23)NC(=O)[C@H](CCCNC(=N)N)NC(=O)[C@@H](Cc2ccccc2)NC(=O)[C@H](CCC(N)=O)NC1=O [reference compound],85,,17
"CC(=O)N[C@@H](CCCNC(=N)N)C(=O)N[C@H]1CCC(=O)NCCC[C@@H](C(N)=O)NC(=O)[C@H](Cc2c[nH]c3ccccc23)NC(=O)[C@H](CCCNC(=N)N)NC(=O)[C@@H](Cc2ccccc2)NC(=O)[C@@H]2C[C@@H](O)CN2C1=O [No. 14, Ac-Arg-cyclo(Glu-Hyp-D-Phe-Arg-Trp-Orn)-NH2]",104,,
"CC(=O)N[C@@H](CCCNC(=N)N)C(=O)N[C@H]1CCC(=O)NCCC[C@@H](C(=O)NC2CC2)NC(=O)[C@H](Cc2c[nH]c3ccccc23)NC(=O)[C@H](CCCNC(=N)N)NC(=O)[C@@H](Cc2ccccc2)NC(=O)[C@H](CCC(N)=O)NC1=O [No. 19, Ac-Arg-cyclo(Glu-Gln-D-Phe-Arg-Trp-Orn)-NH-cycProp]",91,1,
"CC(=O)N[C@@H](CCCNC(=N)N)C(=O)N[C@H]1CCC(=O)NCCC[C@@H](C(N)=O)NC(=O)[C@H](Cc2c[nH]c3ccccc23)NC(=O)[C@H](CCCNC(=N)N)NC(=O)[C@@H](Cc2ccccc2)NC(=O)[C@H](CCCNC(=N)N)NC1=O [No. 10, Ac-Arg-cyclo(Glu-Arg-D-Phe-Arg-Trp-Orn)-NH2]",98,,

# Further lines, with some results ahead:
Emax [1] [%],EC50 [2] [nM],SMILES,EC50 [nM]
91,,CC(=O)N[C@@H](CCCNC(=N)N)C(=O)N[C@H]1CC(=O)NCCCC[C@@H](C(N)=O)NC(=O)[C@H](Cc2c[nH]c3ccccc23)NC(=O)[C@H](CCCNC(=N)N)NC(=O)[C@@H](Cc2ccccc2)NC(=O)[C@H](CCN)NC1=O [reference compound],
69,,CC(=O)N[C@@H](CCCNC(=N)N)C(=O)N[C@H]1CC(=O)NCCCC[C@@H](C(N)=O)NC(=O)[C@H](Cc2c[nH]c3ccccc23)NC(=O)[C@H](CCCNC(=N)N)NC(=O)[C@@H](Cc2ccccc2)NC(=O)[C@H](CCCNC(N)=O)NC1=O [reference compound],
79,9,CC(=O)N[C@@H](CCCNC(=N)N)C(=O)N[C@H]1CC(=O)NCCCC[C@@H](C(=O)NC2CC2)NC(=O)[C@H](Cc2c[nH]c3ccccc23)NC(=O)[C@H](CCCNC(=N)N)NC(=O)[C@@H](Cc2ccccc2)NC(=O)[C@H](CCC(N)=O)NC1=O [reference compound],
103,0.2,"CC(=O)N[C@H](CCCNC(=N)N)C(=O)N[C@H]1CCCNC(=O)CC[C@@H](C(N)=O)NC(=O)[C@H](Cc2c[nH]c3ccccc23)NC(=O)[C@H](CCCNC(=N)N)NC(=O)[C@@H](Cc2ccccc2)NC(=O)[C@H](Cc2c[nH]cn2)NC1=O [No. 39, Ac-D-Arg-cyclo(Orn-His-D-Phe-Arg-Trp-Glu)-NH2]",
73,,CC(=O)N[C@@H](CCCNC(=N)N)C(=O)N[C@H]1CC(=O)NCCCC[C@@H](C(=O)O)NC(=O)[C@H](Cc2c[nH]c3ccccc23)NC(=O)[C@H](CCCNC(=N)N)NC(=O)[C@@H](Cc2ccccc2)NC(=O)[C@H](CC(N)=O)NC1=O [reference compound] (Ac-RDN[dF]RWK-OH; lactam 2-7),
88,,"CC(=O)N[C@@H](CCCNC(=N)N)C(=O)N[C@H]1CCCNC(=O)CC[C@@H](C(N)=O)NC(=O)[C@H](Cc2c[nH]c3ccccc23)NC(=O)[C@H](CCCNC(=N)N)NC(=O)[C@@H](Cc2ccccc2)NC(=O)[C@H](CC(N)=O)NC1=O [No. 46, Ac-Arg-cyclo(Orn-Asn-D-Phe-Arg-Trp-Glu)-NH2]",
